Experimental data published in US20160319277A1, “METHODS OF IMPROVED PROTEIN PRODUCTION USING MIRNAs AND SIRNAs” (THE JOHNS HOPKINS UNIVERSITY, priority 2015, published 2016).

System: HEK-CMV-Luc2-Hygro cells
Experiment: High-throughput genome-wide siRNA screen and validation screen for luciferase expression
Format: cell-based, human
Conditions: for Viable cell density (%) / per cell luciferase yield (%): Table 4, primary screen, 72 h, negative control = 100%; for Luciferase activity (%) / Per cell luciferase yield (%) / Viable cell number (%): Table 6, polyamine pathway gene siRNAs
Procedure: The Silencer Select™ Human genome siRNA library (Ambion), which targets 21,585 human genes with 3 siRNAs per gene, was used for screening. Each siRNA is arrayed in an individual well (Corning 3570, 384 well, white, solid bottom plates). The transfection was done in duplicates: 0.8 pmol of each siRNA was spotted to a well of a 384-well plate (Corning) and 20 μL of serum-free DMEM containing 0.07 μL of Lipofectamine™ RNAiMax (Life Technologies) was then added to each well. This lipid-siRNA mixture was incubated at ambient temperature for 30 min prior to addition of 4000 cells in 20 μL of DMEM containing 20% FBS (Gibco). After incubating the transfected cells at 37° C. in 5% CO2 for 72 hours, 20 μL of ONE-Glo™ Reagent (Promega) was added to one set of replicates for ‘overall luciferase yield’ quantification and 20 μL of CellTiter-Glo™ Reagent (Promega) was added to the second set of replicates for ‘viable cell density’ measurement. All plates were incubated at room temperature for 20 minutes to stabilize the luminescent signal and the signal was then measured with PerkinElmer Envision 2104 Multilabel™ plate reader.
The 56 genes which got targeted by at least two independent siRNAs (out of three) resulting in enhanced luciferase production with MAD-based z-score>3 from the primary screen were subjected to validation screen using 3 additional Silencer™ siRNAs (Ambion) with different sequences from those used in the primary screen. […] The transfection and assay processes were-the same as the primary genome-wide screen. Data visualization was performed in R computational environment (available on the World Wide Web at R-project.org/) by using ‘hexbin’ and ‘ggplot2’ packages.
The screen generated end-point data for ‘overall luciferase yield’ and ‘viable cell density’ in each well. For each plate, the median value of the negative control wells was set as 100% and was used to normalize corresponding sample wells. The ‘overall luciferase yield’ and ‘viable cell density’ were exported as % of negative control and the median absolute deviation (MAD)-based z-score was calculated for each sample.

Substance | Viable cell density (%) | per cell luciferase yield (%) | Luciferase activity (%) | Per cell luciferase yield (%) | Viable cell number (%)
124 (GAAUAACCGUUGGUUUAAUTT; chemistry not given here; listed as Homo sapiens) [compound 124] | 65.083 | 292.710 | – | – | –
125 (GGAACACUAUGAUGAGUUUTT; chemistry not given here; listed as Homo sapiens) [compound 125] | 63.672 | 240.287 | – | – | –
126 (GGUGCUCUCGGUUGCACAATT; chemistry not given here; listed as Homo sapiens) [compound 126] | 82.333 | 187.362 | – | – | –
127 (CCAACUACCUGAACGAUGATT; chemistry not given here; listed as Homo sapiens) [compound 127] | 54.133 | 311.348 | – | – | –
128 (CAGCAAACCUUUGACCAGATT; chemistry not given here; listed as Homo sapiens) [compound 128] | 55.405 | 277.511 | – | – | –
129 (GCUAUUUCCAGCGAAUAUATT; chemistry not given here; listed as Homo sapiens) [compound 129] | 81.492 | 244.722 | – | – | –
130 (GGAGGAAUCUCGAAUGCGATT; chemistry not given here; listed as Homo sapiens) [compound 130] | 96.002 | 173.284 | – | – | –
131 (GGAGAAAGAAUCAACGGAATT; chemistry not given here; listed as Homo sapiens) [compound 131] | 70.586 | 284.565 | – | – | –
132 (GGACGGAAGCGAAAAUCGATT; chemistry not given here; listed as Homo sapiens) [compound 132] | 71.473 | 216.209 | – | – | –
133 (GAACUUCAAUGGAAAACAUTT; chemistry not given here; listed as Homo sapiens) [compound 133] | 63.577 | 250.367 | – | – | –
134 (GAUCGUUUGAGAGAACAAATT; chemistry not given here; listed as Homo sapiens) [compound 134] | 77.107 | 210.336 | – | – | –
135 (CAGGUAGUGUAAGCCCUCATT; chemistry not given here; listed as Homo sapiens) [compound 135] | 66.872 | 302.994 | – | – | –
136 (AGGUUACAGAGGACUCAGATT; chemistry not given here; listed as Homo sapiens) [compound 136] | 49.189 | 299.886 | – | – | –
137 (GAACCGUCGCUACAAGACATT; chemistry not given here; listed as Homo sapiens) [compound 137] | 88.616 | 212.905 | – | – | –
138 (CCCUCCUACUAUUACCCGUTT; chemistry not given here; listed as Homo sapiens) [compound 138] | 96.869 | 162.999 | – | – | –
139 (GGAGAUAUGCAAAGCAGAATT; chemistry not given here; listed as Homo sapiens) [compound 139] | 83.011 | 194.043 | – | – | –
140 (GUCCGAGUGUGGUUCUGUATT; chemistry not given here; listed as Homo sapiens) [compound 140] | 85.820 | 180.401 | – | – | –
141 (AGAGGACCCAGAUUGUCUATT; chemistry not given here; listed as Homo sapiens) [compound 141] | 97.298 | 183.386 | – | – | –
142 (AAGUCAACAUAGCCCGAAATT; chemistry not given here; listed as Homo sapiens) [compound 142] | 111.487 | 145.707 | – | – | –
143 (GCAAAGAUAGCGAGAAAUATT; chemistry not given here; listed as Homo sapiens) [compound 143] | 75.599 | 193.846 | – | – | –

Substance | Viable cell density (%) | per cell luciferase yield (%) | Luciferase activity (%) | Per cell luciferase yield (%) | Viable cell number (%)
144 (GGAUCACGCAGCUCAAGAUTT; chemistry not given here; listed as Homo sapiens) [compound 144] | 91.538 | 161.634 | – | – | –
145 (CCAGUUCGACCUGAACAAATT; chemistry not given here; listed as Homo sapiens) [compound 145] | 85.750 | 176.019 | – | – | –
146 (GACCUAUACUCAUUCUGCATT; chemistry not given here; listed as Homo sapiens) [compound 146] | 83.351 | 171.308 | – | – | –
147 (GUUUCGACCUCGAUCCAGATT; chemistry not given here; listed as Homo sapiens) [compound 147] | 61.490 | 256.085 | – | – | –
148 (CAGCCUCACCAAGCACAAATT; chemistry not given here; listed as Homo sapiens) [compound 148] | 85.866 | 167.413 | – | – | –
149 (CGACCAUCAUGGAAAACAUTT; chemistry not given here; listed as Homo sapiens) [compound 149] | 57.472 | 294.800 | – | – | –
150 (CGCUUUAACUGGAAGCUCUTT; chemistry not given here; listed as Homo sapiens) [compound 150] | 103.662 | 146.993 | – | – | –
151 (GAAACUGCAUGAGAAGACATT; chemistry not given here; listed as Homo sapiens) [compound 151] | 59.084 | 288.857 | – | – | –
152 (CGAUGUUCGUGGACAUUCUTT; chemistry not given here; listed as Homo sapiens) [compound 152] | 80.013 | 234.608 | – | – | –
153 (CACUUUCCUGGGUAUUGUATT; chemistry not given here; listed as Homo sapiens) [compound 153] | 87.831 | 171.072 | – | – | –
154 (CAACAGUACUUACCGAUGUTT; chemistry not given here; listed as Homo sapiens) [compound 154] | 115.513 | 141.760 | – | – | –
155 (GCCUUGCUCCGAACCUUCATT; chemistry not given here; listed as Homo sapiens) [compound 155] | 94.839 | 169.972 | 161.1 | 169.9 | 94.8
156 (GAUUAUCCUUGUACUUUGATT; chemistry not given here; listed as Homo sapiens) [compound 156] | 101.904 | 141.842 | 144.5 | 141.8 | 101.9
157 (GAACAGCUGGGAACCUUCATT; chemistry not given here; listed as Homo sapiens) [compound 157] | 60.645 | 254.007 | – | – | –
158 (CUUCGACAGUACUUCCGGATT; chemistry not given here; listed as Homo sapiens) [compound 158] | 104.020 | 161.613 | – | – | –
159 (GGAGUUCUUUGAUGAGAAATT; chemistry not given here; listed as Homo sapiens) [compound 159] | 96.357 | 157.243 | – | – | –
160 (GGACCAAGCCCUAAAGGAATT; chemistry not given here; listed as Homo sapiens) [compound 160] | 68.989 | 220.902 | – | – | –
161 (GCAGUGGACAUAGAAGAGATT; chemistry not given here; listed as Homo sapiens) [compound 161] | 110.815 | 140.658 | – | – | –
162 (CGAUAUGCUUUUCUACGUUTT; chemistry not given here; listed as Homo sapiens) [compound 162] | 76.131 | 235.013 | – | – | –
